We go through three compounds from patent US4233299A, “4-Hydroxy-2H-1,2-benzothiazine-3-carboxamide-1,1-dioxides and salts thereof” (priority 1977, dated 1980).

Structures are written as SMILES. “Also recorded” adds a separate entry of the source. Where two headings read alike, the source gives them in different places.

For data set [1], the system named is pain caused by inflammation (yeast edema). The data set is described as follows: activity against the pain caused by inflammation (Randall and Selitto). The class given is in vivo, male Chbb:THOM-rats. The settings on record: for ED50: po, 1.5 h, read-out: Randall-Selitto ED50. Here is the method:
The activity against the pain caused by inflammation was tested according to Randall and Selitto [Arch. Int. Pharmacodyn. 111, 409 (1957] in male Chbb:THOM-rats, having a body weight of 100 to 130 gm. The test compounds were administered perorally 90 minutes after the induction of the yeast edema by means of an esophageal tube. After further 90 minutes the pain threshold was determined in the animals treated with the test compound and in the control animals treated only with the vehicle methyl cellulose, and by using a linear regression analysis an ED50 was calculated with the confidence limits according to FIELLER, the ED50 being the dose which increased the pain threshold by 50%.

A short description of data set [2]: acute toxicity in the mouse. Conditions: in vivo; for selectivity ratio: po, Table V, LD50 / ED50 adjuvant arthritis prim. reaction, read-out: Therapeutic Ratio I/II (converted); for LD50 at 336 h: Table III, oral administration, mouse, deaths within 14 days, limits in parentheses. It is filed as in vivo, male and female Chbb: NMRI (SPF)-mice. Here is the method: (§1) The acute toxicity was determined on male and female Chbb: NMRI (SPF)-mice (sex ratio of each dosage group 1:1) having an average body weight of 20 gm. The test compound was administered perorally as a trituration in 1% of methyl cellulose (0.2 ml/10 gm animal) by means of an esophageal sound.
(§2) The calculation of the LD50 -values was effected according to the method of LITCHFIELD and WILCOXON, based on the percentage of animals which died within 14 days after administration of each dose.

The test system of another data set is adjuvant arthritis. Briefly: activity against adjuvant arthritis in the rat. The class given is in vivo, male Chbb:THOM-rats. The settings on record: for ED50: Rattus norvegicus, 504 h; for antiphlogistic activity: in words, compared with compound A. Here is the method: 0.1 ml of a 1% suspension of M. butyricum in viscous paraffin oil was administered by subplantar injection to the right hind paw of male Chbb:THOM-rats having an average body weight of 210 gm at the beginning of the test. […]
Using a linear regression analysis, an ED50 with the confidence limits according to FIELLER [Quart. J. Pharm. Pharmacol. 17, 117 (1944)] was calculated as the dosage which reduces the swelling of the paws by 50% in comparison to the control animals.

A short description of data set [3]: ulcerogenic effect on the stomach of the rat. The class given is in vivo, male Chbb:THOM-rats. The settings on record: rat, in vivo; for selectivity ratio: po, Table IV, ED50 ulcer / ED50 adjuvant arthritis prim. reaction, read-out: Therapeutic Ratio I/II; for TD50: Table II, daily oral administration for 3 days, limits in parentheses, Litchfield and Wilcoxon, read-out: Ulcerogenic activity in the stomach ED50. How it is done: (§3) The test was carried out on male Chbb:THOM-rats with an average body weight of 130 gm at the beginning of the study. The animals were fed with a standard diet (Altromin-R) ad libitum. The test compounds were administered perorally as a trituration in 1% methyl cellulose (1 ml/100 gm animal) by means of an esophageal sound once a day on three successive days. Four hours after the last administration the animals were killed. The stomachs were dissected and the mucosa was washed with water for subsequent macroscopic evaluation. […] Therap. 96, 99 (1949)].

The test system of another data set is stomach of the rat. Briefly: ulcerogenic effect on the stomach of the rat. It is filed as in vivo, male Chbb:THOM-rats. Here is the method: as §3
Another data set deals with mouse. Briefly: acute toxicity in the mouse. The class given is in vivo, male and female Chbb: NMRI (SPF)-mice. The settings on record: compared with the other compounds; see Table V. Here is the method:
as §1, §2

Where [4] appears, read: Table I, daily oral administration, 21 days, dose per day, left hind paw swelling reduced by 50%, confidence limits according to FIELLER in parentheses, read-out: Activity against the secondary reaction ED50.
Setting [5] is: Table I, daily oral administration, 21 days, dose per day, right hind paw swelling reduced by 50%, confidence limits according to FIELLER in parentheses, read-out: Activity against the primary reaction ED50.

Turning to `CN1C(C(=O)Nc2nccs2)=C(O)c2ccccc2S1(=O)=O` [C, 4-Hydroxy-2-methyl-N-(2thiazolyl)-2H-1,2-benzothiazine-3-carboxamide-1,1-dioxide], the ED50 in data set [1] (in Rattus norvegicus) turned out to be 9.2 mg/kg; in the data set with adjuvant arthritis (po, read-out: Activity against the primary reaction ED50), 0.77 mg/kg; in the data set with adjuvant arthritis (po, read-out: Activity against the secondary reaction ED50), 0.6 mg/kg. Besides, the selectivity ratio in data set [2] was 12600; in data set [3], 1.23. Further, the 50% lethal dose (LD50) at 336 h in data set [2] is 466 mg/kg. Further, in the data set on adjuvant arthritis, the antiphlogistic activity entry is reported as “weaker antiphlogistic activity”. Further, the TD50 in data set [3] was found to be 0.95 mg/kg. Besides, the “ulcerogenic effect on the stomach, relative to compound A” value in the data set on stomach of the rat (in words, compared with compound A) is given as “two times stronger”.
For `Cc1csc(NC(=O)C2=C(O)c3ccccc3S(=O)(=O)N2C)n1` [Compound B, 4-Hydroxy-2-methyl-N-(4-methyl-2-thiazolyl)-2H-1,2-benzothiazine-3-carboxamide-1,1-dioxide], the figures for the selectivity ratio in data set [2] and in data set [3] were 1320 and 0.84, respectively. Also, the LD50 at 336 h in data set [2] was 488 mg/kg. Besides, the ED50 amounted to 0.21 mg/kg in the data set with adjuvant arthritis (setting [4]) and 0.37 mg/kg in the data set on adjuvant arthritis (setting [5]). Besides, the antiphlogistic activity result in the data set on adjuvant arthritis is reported as “does not completely reach the antiphlogistic activity of compound A”. The TD50 in data set [3] is 0.31 mg/kg. For the same compound, the “therapeutic ratio, in words” value in the data set with stomach of the rat (Table IV ratio, compared with compound C) is given as “still smaller than that of compound C”. Also, the “ulcerogenic activity, in words” value with stomach of the rat (stomach) is on record as “strong ulcerogenic effect; also recorded: relatively more pronounced than its antiphlogistic activity”. Moreover, the “ulcerogenic effect on the stomach, relative to compound A” value in the data set with stomach of the rat (times stronger than that of compound A) is reported as “more than 6 times”.
With `Cc1cnc(NC(=O)C2=C(O)c3ccccc3S(=O)(=O)N2C)s1` [Compound A, 4-Hydroxy-2-methyl-N-(5-methyl-2-thiazolyl)-2H-1,2-benzothiazine-3-carboxamide-1,1-dioxide], the ED50 came out at 5.6 mg/kg in data set [1] (Table VI, peroral, rat, dose which increased the pain threshold by 50%); 0.12 mg/kg in the data set on adjuvant arthritis (setting [4]); 0.28 mg/kg with adjuvant arthritis (setting [5]). Moreover, the “effectiveness against the pain caused by inflammation” value in data set [1] (rat, compared with compound C) is reported as “increased effectiveness”. Further, the “difference between the antiphlogistically active doses and the toxic doses” value in the data set with mouse was “distinctly higher than in the other compounds”. The selectivity ratio in data set [2] is 1680; in data set [3], 8.25. Also, the LD50 at 336 h in data set [2] came out at 470 mg/kg. Besides, the “effect on the inflammatory primary reactions, relative to compound C” value in the data set with adjuvant arthritis (compared with compound C) is “three times greater”. Moreover, in the data set on adjuvant arthritis (contralateral paw, compared with compound C), the “effect on the specific secondary reactions, relative to compound C” value is given as “about 5 times”. Moreover, the TD50 in data set [3] is 2.31 mg/kg. The “therapeutic ratio relative to compound C” value with stomach of the rat (Table IV ratio, times greater than that of compound C) is “about 7 times”. For the same compound, the stomach compatibility result in the data set with stomach of the rat (in vivo) is given as “significantly better”. Moreover, the “therapeutic ratio relative to compound B” value with stomach of the rat (times greater than that of compound B) is given as 10 times.

In general, ED50 refers to the midpoint of the dose-response relation. One may read the LD50 as the dose at which mortality reaches 50%.
